# Legend:
# [1] = tested on: SCC cell line (SCC-25); assay: Proteomic analysis of SCC cell line; format: cell-based; details: 100 uM CoQ10, SCC-25
# Description: Next, a proteomic analysis of an in-vitro model of squamous cell carcinoma, SCC cell line (SCC-25), was undertaken to delineate the underlying mechanistic regulating effect of the CoQ10 compositions of the invention. Table 1, shown above and reproduced below, lists the proteins identified to have a differential response to 100 uM CoQ10 treatment in SCC cells at 6 and 24 hours.
# [2] = tested on: IL6; assay: Upregulation of inflammatory cytokines after topical CoQ10; details: topical application
# [3] = tested on: adult fibroblasts; assay: Cell proliferation with increasing Coenzyme Q10 concentration; format: cell-based, human; details: normal fibroblasts, increasing concentration (FIG. 1)
# Description: (§1) When applied topically to melanoma tumors in nude mice, a 1.0% CoQ10 formulation inhibited growth and angiogenesis. The mechanism involves the shifting of the cellular bioenergetics from cytoplasmic glycolysis towards mitochondrial oxidative phosphorylation (AACR 2011). The shift in cellular metabolic pathways in cancer including SCC and melanoma results in the recapitulation of the p53 regulated apoptotic potential by re-establishing the balance of pro-apoptic Bcl-2/Bax ratios in a manner conducive for cell death.
# [4] = tested on: Human aortic smooth muscle cells (HASMC); assay: Western Blot of ACL expression in normal control cells; format: cell-based; details: 50 μM or 100 μM
# Description: (§2) FIG. 3A and FIG. 3B show the effect of Coenzyme Q10 treatment (50 μM or 100 μM) on expression of ATP Citrate lyase (ACL) in SK-MEL-28 melanoma cells. Human aortic smooth muscle cells (HASMC) were used as a control.
# [5] = tested on: SCC cells; assay: Apoptosis Array gene regulation; format: cell-based; details: 100 uM Q10, SCC cells
# Description: Table 3, shown above and reproduced below, lists the genes in SCC cells that are regulated by 100 uM Q10 treatment when analyzed by the Apoptosis Array.
# [6] = Heat stability of CoQ10 solubilized in Polysorbate 80; format: physicochemical; details: 25-60% CoQ10 solubilized in Polysorbate 80, heated for several hours at 55° C.
# Description: Coenzyme Q10 […] is a deep yellow-orange powder and is very hydrophobic with a melting point of approximately 48 degrees centigrade. The active ingredient, CoQ10 […] Cream, ubidecarenone, USP may be adversely affected by heat and light, according to the literature. […] Heating the mixture to 50-55° C. (i.e., 2-7° C. above the melting point of CoQ10) greatly speeds the solubilization of CoQ10. To manufacture the topical CoQ10 cream, two CoQ10 concentrate phases (CoQ10/Polysorbate 80 and water-lecithin-glycol-phenoxyethanol) were each heated separately to 50-55° C. with the water phase added to the solubilized CoQ10 and were mixed with high shear homogenization to form a microemulsion concentrate of CoQ10. The CoQ10 concentrate was then added to a water-in-oil (W/O) cream emulsion base to produce the final CoQ10 cream. The final concentration of CoQ10 in the cream was 3.0%. The CoQ10 3% cream is further described in International Publication No. WO2008/116135, the entire content of which is incorporated by reference in its entirety herein.
# [7] = tested on: SK-MEL-28 melanoma cells; assay: Western Blot of protein expression; format: cell-based
# Description: FIG. 2A and FIG. 2B show the expression of isocitrate dehydrogenase (IDH-1) in SK-MEL-28 melanoma cells treated with increasing concentration of Coenzyme Q10 (50 μM or 100 μM).
# as §2
# FIG. 4A and FIG. 4B show the effect of Coenzyme Q10 on expression of p53, pl4ARF and MDM2 in SK-MEL-28 melanoma cells.
# Bcl-2, Bax and Caspase 3 are pro- and anti-apoptotic markers regulating cell death pathways. A beta-actin loading control was used.
# [8] = tested on: melanoma (SK-MEL-28) cell line; assay: Cell proliferation with increasing Coenzyme Q10 concentration; format: cell-based; details: SK-MEL-28, increasing concentration (FIG. 1)
# Description: as §1
# [9] = tested on: squamous cell carcinoma (SCC-25) cell line; assay: as above; format: cell-based; details: SCC-25, increasing concentration (FIG. 1)
# Description: as §1
# [10] = tested on: normal human keratinocytes; assay: as above; format: cell-based; details: increasing concentration (FIG. 1)
# Description: as §1
# [11] = direction: Decrease, at 6 and 24 hr
# [12] = direction: Decrease, at 24 hr only
# [13] = direction: Increase, at 6 and 24 hr
# [14] = SK-MEL-28, 50 μM or 100 μM for 12 or 24 hours
compound,measurement,setting,value
"COC1=C(OC)C(=O)C(C/C=C(\C)CC/C=C(\C)CC/C=C(\C)CC/C=C(\C)CC/C=C(\C)CC/C=C(\C)CC/C=C(\C)CC/C=C(\C)CC/C=C(\C)CCC=C(C)C)=C(C)C1=O [CoQ10, Coenzyme Q10]",NM23 protein (NME1) Response,[1]; at 24 hr,decrease at 24 hr
same,Keratin 1 (KRT1) Response (fold change),[1]; [11],Decrease (2.3) at 6 and 24 hr fold change
same,Transaldolase 1 (TALDO1) Response (fold change),[1]; [11],Decrease (1.5) at 6 and 24 hr fold change
same,Rho GDP dissociation inhibitor (GDI) alpha (ARHGDIA) Response (fold change),"[1]; direction: Decrease, at 6 hr only",Decrease (1.5) at 6 hr only fold change
same,Proteasome activator subunit 3 (PSME3) Response (fold change),[1]; [12],Decrease (1.3) at 24 hr only fold change
same,Protessome Beta 7 (PSMB7) Response (fold change),[1]; [12],Decrease (1.6) at 24 hr only fold change
same,Heat shock 27 kDa protein 1 (HSPB1) Response (fold change),[1]; [13],Increase (−1.9) at 6 and 24 hr fold change
same,Keratin 13 (KRT13) Response (fold change),[1]; [13],Increase (−1.5) at 6 and 24 hr fold change
same,Keratin 14 (KRT14) Response (fold change),[1]; [13],Increase (−1.6) at 6 and 24 hr fold change
same,NM23 protein (NME1) Response (fold change),"[1]; printed direction: increase, at 6 hr","increase (−1.2) at 6 hr, fold change"
same,upregulation of inflammatory cytokines (IL6),[2],block the upregulation
same,cell proliferation rate,[3],no effect
same,expression of ATP Citrate lyase (ACL),[4],not observed
same,BCL2L1 gene Regulation,[5]; 6 hours,Down regulated at 6 hours and
same,CARD6 gene Regulation,[5]; 6 hours,Down regulated at 6 hours.
same,AKT1 gene Regulation,[5]; 24 hours,then up regulated at 24 hours.
same,BAG4 gene Regulation,[5]; 24 hours,Up regulated at 24 hours.
same,BAX gene Regulation,[5]; 24 hours,Up regulated at 24 hours.
same,BCL2L1 gene Regulation,[5]; 24 hours,then up regulated at 24 hours.
same,BNIP3 gene Regulation,[5]; 24 hours,Down regulated at 24 hours.
same,CASP6 gene Regulation,[5]; 24 hours,Up regulated at 24 hours.
same,CASP7 gene Regulation,[5]; 24 hours,Up regulated at 24 hours.
same,GADD45A gene Regulation,[5]; 24 hours,Up regulated at 24 hours.
same,TP53 gene Regulation,[5]; 24 hours,Up regulated at 24 hours.
same,TP73 gene Regulation,[5]; 24 hours,then up regulated at 24 hours.
same,breakdown of CoQ10 on heating,[6],no measurable breakdown
same,expression of MDM2,[7]; SK-MEL-28 (FIG. 4),decrease
same,expression of ATP Citrate lyase (ACL),"[7]; SK-MEL-28, 50 μM or 100 μM",concentration dependent decrease
same,expression of isocitrate dehydrogenase (IDH-1),"[7]; SK-MEL-28, 50 μM or 100 μM",concentration dependent increase
same,expression of anti-apoptotic bcl-2 protein,[7]; [14],concentration dependent decrease
same,expression of caspase 3,[7]; [14],progressive dose-dependent increase
same,expression of pro-apoptotic bax,[7]; [14],concentration dependent increase
same,cell proliferation rate,[8],dose dependent decrease
same,cell proliferation rate,[8]; listed as Coenzyme Q10,concentration dependent decrease
same,cell proliferation rate,[9],dose dependent decrease
same,cell proliferation rate,[9]; listed as Coenzyme Q10,concentration dependent decrease
same,cell proliferation rate,[10],no effect

# — patent US12616666B2, “Coenzyme Q10 formulations in the treatment and prevention of epidermolysis bullosa” (BPGbio, Inc., priority 2017, dated 2026)
